Values quoted from earlier work in patent publication US20070243260A1, “Treatment of Childhood Asthma” (priority 2004, published 2007).

How the values were obtained:
[1] = test system: asthma; details: single administration, metered-dose aerosol
[2] = test system: asthma; details: inhaled; up to 8 hours appears to be maximal

With C[N+]1(C)CCC(OC(=O)C(O)(c2ccccc2)C2CCCC2)C1 (centres unmarked) [glycopyrrolate] as the compound, how does the Period of bronchodilation [1] read?
Its Period of bronchodilation is 12 h.

And the “Duration of effective treatment” value [2]?
The value was “up to 12 hours”.
